Measured values: US20060204537A1, “Silicone blends and composites for drug delivery” (Genzyme Corporation, priority 2002, published 2006)

Assay: Release of Paclitaxel from silicone elastomer coatings into calf serum
Type: physicochemical
Conditions: for steady state release rate of Paclitaxel: calf serum, 37° C.
Protocol: All samples were dip-coated pieces of 316 L stainless steel, measuring 1 cm×1 cm with 26 gauge thickness. The stainless steel pieces were first cleaned by sonicating in 3% Isopanasol, deionised (DI) water, and acetone, each for 6 minutes, then dipped into the silicone composite solutions of the invention. Silicone elastomer solutions were made with DAP® 100% silicone rubber adhesive (from DAP, Inc., Maryland) co-dissolved with either Paclitaxel or Tranilast and 20% (w/w) of polyethylene glycol, MW 3400 (PEG) in methylene chloride. Upon setting, the silicone elastomer solutions formed a film on the steel pieces having a certain thickness. Paclitaxel was loaded at 2% of silicone weight. Tranilast was loaded at 5% of silicone weight. […] All samples were placed in glass culture tubes with 2 mL of either PBS, pH 7.4 or calf serum. The culture tubes were then placed in a shaking water bath at 37° C. and 120 rpm. At each time interval, all of the release media was removed and replaced by fresh solution. Paclitaxel samples were assayed using a competitive inhibition enzyme immunoassay (CIEIA) kit from Hawaii Biotech, Aiea, Hi. Tranilast samples were assayed using UV spectrophotometry at a wavelength of 340 nm.

With `CC(=O)O[C@H]1C(=O)[C@@]2(C)[C@H]([C@H](OC(=O)c3ccccc3)[C@]3(O)C[C@H](OC(=O)[C@H](O)[C@@H](NC(=O)c4ccccc4)c4ccccc4)C(C)=C1C3(C)C)[C@]1(OC(C)=O)CO[C@@H]1C[C@@H]2O` [Paclitaxel] the “duration of almost zero-order release after the initial burst” value (both films, with and without PEG) was 60 days, the “steady state release rate of Paclitaxel” value (films with 20% weight PEG MW 3400) was 0.38 ± 0.03 µg/day and the “initial burst of Paclitaxel” value (films without PEG compared with films with 20% PEG) was “higher initial burst”. For the same molecule, the “steady state release rate of Paclitaxel” value (films without PEG) was 0.21 ± 0.03 µg/day and the “duration of continued but decreased release” value (silicone elastomer coatings) was no more than 140 days.
